How the values were obtained:
SMARCA4-HiBiT = molecular target: T1, SMARCA4-HiBiT (Homo sapiens, UniProt P51532); experiment: SMARCA4 HiBiT degradation assay in HeLa cells; assay type: cell-based; settings: 18 hours incubation; for DC50: read-out: HeLa-HiBit-SM4 DC50; for Dmax: HeLa, read-out: HeLa-HiBit-SM4 Dmax (%)
T1 construct: SMARCA4-HiBiT knock-in Hela monoclonal cell (CS3023226); host or cells: HeLa monoclonal knock-in line (CRISPR HiBiT knock-in at the endogenous locus, heterozygous)
Procedure, shortened: (§1)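 HeLa monoclonal lines with heterozygous HiBiT knock-in were seeded at 2500 cells/well in EMEM with 10% FBS and treated with compound for 18 h at 37 °C. Remaining tagged protein was measured by Nano-Glo HiBiT lytic luminescence after 30–60 min at RT, and values came from curve fitting.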

SMARCA2-HiBiT = molecular target: T2, SMARCA2-HiBiT (Homo sapiens, UniProt P51531); experiment: SMARCA2 HiBiT degradation assay in HeLa cells; assay type: cell-based; settings: 18 hours incubation; for DC50: read-out: HeLa_HiBit-SM2 DC50; for Dmax: HeLa, read-out: HeLa-HiBit-SM2 Dmax (%)
T2 construct: SMARCA2-HiBiT knock-in Hela monoclonal cell (CS302366); host or cells: HeLa monoclonal knock-in line (CRISPR HiBiT knock-in at the endogenous locus, heterozygous)
Procedure, shortened: as §1

T2 sequence (P51531 whole entry): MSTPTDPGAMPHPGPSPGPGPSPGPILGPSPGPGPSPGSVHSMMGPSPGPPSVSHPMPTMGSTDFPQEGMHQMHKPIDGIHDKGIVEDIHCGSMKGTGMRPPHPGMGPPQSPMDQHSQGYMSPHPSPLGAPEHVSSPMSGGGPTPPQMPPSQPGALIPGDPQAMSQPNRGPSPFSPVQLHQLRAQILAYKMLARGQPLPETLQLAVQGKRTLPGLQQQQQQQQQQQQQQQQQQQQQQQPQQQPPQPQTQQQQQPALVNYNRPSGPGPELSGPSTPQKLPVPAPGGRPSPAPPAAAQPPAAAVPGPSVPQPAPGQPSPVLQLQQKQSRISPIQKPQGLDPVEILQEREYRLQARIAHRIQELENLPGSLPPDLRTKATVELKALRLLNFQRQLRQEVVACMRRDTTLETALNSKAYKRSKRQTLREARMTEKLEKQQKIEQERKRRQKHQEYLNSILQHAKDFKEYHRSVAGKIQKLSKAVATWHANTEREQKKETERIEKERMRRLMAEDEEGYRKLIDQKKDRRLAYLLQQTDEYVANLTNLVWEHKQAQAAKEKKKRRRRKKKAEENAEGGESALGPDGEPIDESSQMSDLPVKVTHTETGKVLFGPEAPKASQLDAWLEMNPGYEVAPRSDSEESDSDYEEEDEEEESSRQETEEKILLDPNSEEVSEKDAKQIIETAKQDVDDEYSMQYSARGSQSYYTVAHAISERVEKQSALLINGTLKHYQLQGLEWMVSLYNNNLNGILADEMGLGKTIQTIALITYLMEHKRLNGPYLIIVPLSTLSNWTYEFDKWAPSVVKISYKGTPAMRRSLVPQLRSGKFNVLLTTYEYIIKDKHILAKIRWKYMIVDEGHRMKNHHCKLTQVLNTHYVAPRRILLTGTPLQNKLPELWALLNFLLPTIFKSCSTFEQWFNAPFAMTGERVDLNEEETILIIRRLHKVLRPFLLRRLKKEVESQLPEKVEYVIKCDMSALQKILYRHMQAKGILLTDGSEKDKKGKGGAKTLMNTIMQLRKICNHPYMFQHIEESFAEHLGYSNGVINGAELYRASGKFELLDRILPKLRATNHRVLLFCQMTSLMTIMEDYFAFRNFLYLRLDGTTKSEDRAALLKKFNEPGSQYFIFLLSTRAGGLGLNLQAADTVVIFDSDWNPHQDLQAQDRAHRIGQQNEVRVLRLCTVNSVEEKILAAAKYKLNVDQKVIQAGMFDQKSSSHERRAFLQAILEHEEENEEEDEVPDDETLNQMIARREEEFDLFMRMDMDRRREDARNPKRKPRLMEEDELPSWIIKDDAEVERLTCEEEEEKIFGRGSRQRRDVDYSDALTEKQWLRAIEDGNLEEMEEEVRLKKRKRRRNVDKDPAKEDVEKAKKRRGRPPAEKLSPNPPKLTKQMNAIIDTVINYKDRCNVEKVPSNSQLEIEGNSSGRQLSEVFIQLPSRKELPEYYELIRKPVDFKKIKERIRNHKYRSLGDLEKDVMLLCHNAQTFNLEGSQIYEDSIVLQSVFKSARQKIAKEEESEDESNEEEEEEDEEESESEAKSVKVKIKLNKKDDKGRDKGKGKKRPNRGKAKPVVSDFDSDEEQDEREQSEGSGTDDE
T1 sequence (P51532 whole entry): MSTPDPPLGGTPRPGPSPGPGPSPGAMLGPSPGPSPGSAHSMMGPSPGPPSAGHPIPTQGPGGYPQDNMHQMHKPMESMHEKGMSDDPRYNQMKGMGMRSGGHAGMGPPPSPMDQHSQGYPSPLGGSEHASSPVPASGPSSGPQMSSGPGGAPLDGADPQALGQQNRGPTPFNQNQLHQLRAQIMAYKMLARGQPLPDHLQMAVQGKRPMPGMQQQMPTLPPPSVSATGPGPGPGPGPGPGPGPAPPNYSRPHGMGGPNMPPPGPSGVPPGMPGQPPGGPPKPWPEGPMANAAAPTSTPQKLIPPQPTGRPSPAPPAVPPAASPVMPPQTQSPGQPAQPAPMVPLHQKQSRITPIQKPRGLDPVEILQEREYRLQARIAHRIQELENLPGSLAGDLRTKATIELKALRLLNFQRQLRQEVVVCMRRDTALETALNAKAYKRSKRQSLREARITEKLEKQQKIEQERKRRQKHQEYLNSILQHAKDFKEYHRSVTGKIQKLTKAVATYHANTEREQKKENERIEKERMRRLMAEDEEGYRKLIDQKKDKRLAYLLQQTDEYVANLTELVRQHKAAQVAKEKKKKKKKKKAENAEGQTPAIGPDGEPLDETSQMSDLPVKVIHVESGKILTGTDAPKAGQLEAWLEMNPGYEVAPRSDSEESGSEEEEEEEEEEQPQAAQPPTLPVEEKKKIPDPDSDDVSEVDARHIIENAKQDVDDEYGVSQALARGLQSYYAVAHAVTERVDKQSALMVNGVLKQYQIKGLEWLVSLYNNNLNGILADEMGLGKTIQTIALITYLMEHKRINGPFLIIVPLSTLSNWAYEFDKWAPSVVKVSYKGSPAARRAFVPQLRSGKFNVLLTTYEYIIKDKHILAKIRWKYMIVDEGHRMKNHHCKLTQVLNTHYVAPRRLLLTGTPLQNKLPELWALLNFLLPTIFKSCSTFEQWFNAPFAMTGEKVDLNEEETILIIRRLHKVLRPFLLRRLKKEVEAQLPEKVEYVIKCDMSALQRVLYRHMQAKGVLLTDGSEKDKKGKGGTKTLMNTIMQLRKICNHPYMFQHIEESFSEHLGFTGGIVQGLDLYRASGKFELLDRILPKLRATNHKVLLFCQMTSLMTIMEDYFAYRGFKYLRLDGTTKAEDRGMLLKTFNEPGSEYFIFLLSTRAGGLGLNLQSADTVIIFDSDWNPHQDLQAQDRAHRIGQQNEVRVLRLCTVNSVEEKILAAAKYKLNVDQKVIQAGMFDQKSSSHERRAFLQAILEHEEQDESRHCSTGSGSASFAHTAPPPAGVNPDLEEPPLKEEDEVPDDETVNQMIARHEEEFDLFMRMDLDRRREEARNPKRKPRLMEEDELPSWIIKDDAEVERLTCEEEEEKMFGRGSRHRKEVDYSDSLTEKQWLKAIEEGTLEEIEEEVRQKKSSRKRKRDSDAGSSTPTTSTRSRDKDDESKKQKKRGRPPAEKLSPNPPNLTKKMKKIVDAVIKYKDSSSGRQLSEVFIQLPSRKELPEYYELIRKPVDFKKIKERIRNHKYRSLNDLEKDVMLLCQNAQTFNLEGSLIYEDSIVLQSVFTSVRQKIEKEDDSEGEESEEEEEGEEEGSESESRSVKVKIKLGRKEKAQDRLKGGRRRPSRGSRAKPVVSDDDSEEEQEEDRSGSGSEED

Structure (SMILES) | DC50 (SMARCA4-HiBiT) | Dmax (SMARCA4-HiBiT) | DC50 (SMARCA2-HiBiT) | Dmax (SMARCA2-HiBiT) | HeLa-HiBit-SM4 Dmax (%) (SMARCA4-HiBiT) | HeLa-HiBit-SM2 Dmax (%) (SMARCA2-HiBiT)
CC(C)(C)C(=O)OCN1C(=O)CCC(N2C(=O)c3ccc(N4CCC(CN5CCC(CN6CCN7c8cc(-c9ccccc9O)nnc8NC[C@H]7C6)CC5)CC4)cc3C2=O)C1=O (stereo partly drawn) [Example 34, (3-(5-(4-((4-(((S)-2-(2-hydroxyphenyl)-5,6,6a,7,9,10-hexahydro-8H-pyrazino [1′,2′:4,5]pyrazino[2,3-c]pyridazin-8-yl)methyl)piperidin-1-yl)methyl)piperidin-1-yl)-1,3-dioxoisoindolin-2-yl)-2,6-dioxopiperidin-1-yl)methyl pivalate] | < 10 nM | > 85% | < 10 nM | > 85% | – | –
C[C@@H](CN1CCC(N2CCN3c4cc(-c5ccccc5O)nnc4NC[C@H]3C2)CC1)Nc1cccc2c1C(=O)N(C1CCC(=O)NC1=O)C2=O (stereo partly drawn) [Example 71, 2-(2,6-dioxopiperidin-3-yl)-4-(((S)-1-(4-((S)-2-(2-hydroxyphenyl)-5,6,6a,7,9,10-hexahydro-8H-pyrazino[1′,2′:4,5]pyrazino[2,3-c]pyridazin-8-yl)piperidin-1-yl)propan-2-yl)ammo)isoindoline-1,3-dione] | < 10 nM | 75 to 85% | < 10 nM | 75 to 85% | – | –
O=C1CCC(N2C(=O)c3ccc(N4CCC(CN5C[C@@H]6[C@H](C5)[C@@H]6CN5CCN6c7cc(-c8ccccc8O)nnc7NC[C@H]6C5)CC4)cc3C2=O)C(=O)N1 (stereo partly drawn) [Example 43, 2-(2,6-dioxopiperidin-3-yl)-5-(4-(((1R,5S,6s)-6-(((S)-2-(2-hydroxyphenyl)-5,6,6a,7,9,10-hexahydro-8H-pyrazino[1′,2′:4,5]pyrazino[2,3-c]pyridazin-8-yl)methyl)-3-azabicyclo[3.1.0]hexan-3-yl)methyl)piperidin-1-yl)isoindoline-1,3-dione] | < 10 nM | 50 to 75% | < 10 nM | > 85% | – | –
O=C1CCC(N2Cc3cc(CN4CCC(CCCN5CCC(N6CCN7c8cc(-c9ccccc9O)nnc8NC[C@H]7C6)CC5)CC4)ccc3C2=O)C(=O)N1 (stereo partly drawn) [Example 65, 3-(5-((4-(3-(4-((S)-2-(2-hydroxyphenyl)-5,6,6a,7,9,10-hexahydro-8H-pyrazino[1′,2′:4,5]pyrazino[2,3-c]pyridazin-8-yl)piperidin-1-yl)propyl)piperidin-1-yl)methyl)-1-oxoisoindolin-2-yl)piperidine-2,6-dione] | < 10 nM | > 85% | < 10 nM | > 85% | – | –
O=C1CCC(N2C(=O)c3ccc(NCCN4CCN(C(=O)N5CCN6c7cc(-c8ccccc8O)nnc7NC[C@H]6C5)CC4)cc3C2=O)C(=O)N1 (stereo partly drawn) [Example 219, 2-(2,6-dioxopiperidin-3-yl)-5-((2-(4-((S)-2-(2-hydroxyphenyl)-6,6a,7,8,9,10-hexahydro-511-pyrazino[1′,2′:4,5]pyrazino[2,3-c]pyridazine-8-carbonyl)piperazin-1-yl)ethyl)amino) isoindoline-1,3-dione] | 10 to 100 nM | ≤ 50% | < 10 nM | 50 to 75% | – | –
C[C@H]1CN2c3cc(-c4ccccc4O)nnc3NC[C@H]2CN1C[C@H]1[C@@H]2CN(CC3CCN(c4ccc5c(c4)C(=O)N(C4CCC(=O)NC4=O)C5=O)C[C@@H]3F)C[C@@H]21 (stereo in doubt) [Example 199, 2-(2,6-dioxopiperidin-3-yl)-5-[(3R,4R)-3-fluoro-4-[[(1S,5R)-6-[[(10S,13S)-4-(2-hydroxyphenyl)-13-methyl-1,5,6,8,12-pentazatricyclo [8.4.0.02,7]tetradeca-2(7),3,5-trien-12-yl]methyl]-3-azabicyclo [3.1.0]hexan-3-yl]methyl]piperidin-1-yl]isoindole-1,3-dione] | < 10 nM | 50 to 75% | < 10 nM | > 85% | – | –
O=C1CCC(N2C(=O)c3ccc(N4CCC(CCN5CCC(CN6CCN7c8cc(-c9ccccc9O)nnc8NC[C@H]7C6)CC5)CC4)cc3C2=O)C(=O)N1 (stereo partly drawn) [Example 224, 2-(2,6-dioxopiperidin-3-yl)-5-(4-(2-(4-(((S)-2-(2-hydroxyphenyl)-5,6,6a,7,9,10-hexahydro-8H-pyrazino[1′,2′:4,5]pyrazino[2,3-c]pyridazin-8-yl)methyl)piperidin-1-yl)ethyl)piperidin-1-yl)isoindoline-1,3-dione] | < 10 nM | 75 to 85% | < 10 nM | 75 to 85% | – | –
O=C1CCC(N2C(=O)c3ccc(N4CC[C@H](CN5CCC(C(=O)N6CCN7c8cc(-c9cc(F)ccc9O)nnc8NC[C@H]7C6)CC5)[C@@H](F)C4)cc3C2=O)C(=O)N1 (stereo partly drawn) [Example 280, 2-(2,6-dioxopiperidin-3-yl)-5-((3R,4R)-3-fluoro-4-((4-((S)-2-(5-fluoro-2-hydroxyphenyl)-6,6a,7,8,9,10-hexahydro-5H-pyrazino[1′,2′:4,5]pyrazino[2,3-c]pyridazine-8-carbonyl)piperidin-1-yl)methyl)piperidin-1-yl)isoindoline-1,3-dione] | < 10 nM | – | < 10 nM | – | B (B=75%<Dmax<=85%) | A (A=Dmax>85%)
O=C1CCC(N2Cc3ccc(N4CCC(CN5CCN(C(=O)N6CCN7c8cc(-c9ccccc9O)nnc8NC[C@H]7C6)CC5)CC4)cc3C2=O)C(=O)N1 (stereo partly drawn) [Example 95, 3-(6-(4-((4-((S)-2-(2-hydroxyphenyl)-6,6a,7,8,9,10-hexahydro-5H-pyrazino [1′,2′:4,5]pyrazino[2,3-c]pyridazine-8-carbonyl)piperazin-1-yl)methyl)piperidin-1-yl)-1-oxoisoindolin-2-yl)piperidine-2,6-dione] | < 10 nM | 75 to 85% | < 10 nM | > 85% | – | –
CN(CC1CCN(CC2CCN(c3ccc4c(c3)C(=O)N(C3CCC(=O)NC3=O)C4=O)CC2)CC1)C1CCN2c3cc(-c4ccccc4O)nnc3NCC2C1 (stereo not drawn) [Example 254, 2-(2,6-dioxopiperidin-3-yl)-5-(4-((4-(((2-(2-hydroxy-phenyl)-6,6a,7,8,9,10-hexahydro-5H-pyrido[1′,2′:4,5]pyrazino[2,3-c]pyridazin-8-yl)(methyl)amino)methyl)piperidin-1-yl)methyl)piperidin-1-yl)isoindoline-1,3-dione] | 10 to 100 nM | 75 to 85% | < 10 nM | 50 to 75% | – | –
O=C1CCC(N2Cc3cc(C4CCN(C5CCCN(CCCN6CCN7c8cc(-c9ccccc9O)nnc8NC[C@H]7C6)C5)CC4)ccc3C2=O)C(=O)N1 (stereo partly drawn) [Example 210, 3-(5-(1′-(3-((S)-2-(2-hydroxyphenyl)-5,6,6a,7,9,10-hexahydro-8H-pyrazino[1′,2′:4,5]pyrazino[2,3-c]pyridazin-8-yl)propyl)-[1,3′-bipiperidin]-4-yl)-1-oxoisoindolin-2-yl)piperidine-2,6-dione] | < 10 nM | 75 to 85% | < 10 nM | > 85% | – | –
O=C1CCC(N2C(=O)c3ccc(N4Cc5cnc(N6C[C@@H]7[C@@H](CN8CCN9c%10cc(-c%11ccccc%11O)nnc%10NC[C@H]9C8)[C@@H]7C6)nc5C4)cc3C2=O)C(=O)N1 (stereo partly drawn) [Example 58, 2-(2,6-dioxopiperidin-3-yl)-5-(2-((1R,5S,6s)-6-(((S)-2-(2-hydroxyphenyl)-5,6,6a,7,9,10-hexahydro-8H-pyrazino[1′,2′:4,5]pyrazino[2,3-c]pyridazin-8-yl)methyl)-3-azabicyclo[3.1.0]hexan-3-yl)-5,7-dihydro-6H-pyrrolo[3,4-d]pyrimidin-6-yl) isoindoline-1,3-dione] | 10 to 100 nM | ≤ 50% | < 10 nM | 50 to 75% | – | –

Source: US12448389B2, “BRM targeting compounds and associated methods of use” (Prelude Therapeutics Incorporated, priority 2020, dated 2025)
